Counter-ions that a name gives are not always drawn.
Assays:
[1] = biological target: T1, HCV polymerase 1A (Δ21 NS5B, H77) (Hepatitis C virus genotype 1a, UniProt P27958); test: biochemical; conditions: IC50 1a
T1 construct: 20 to 50 nM Δ21 NS5B
Method: (§1) HCV Polymerase Inhibition Assay
The reaction was initiated by the addition of 20 μM CTP, 20 μM ATP, 1 μM ^3H-UTP (10 mCi/umol), 5 nM template RNA and 0.1 U/μl RNase inhibitor (RNasin, Promega), and allowed to proceed for 2 to 4 h at room temperature. Reaction volume was 50 μl. The reaction was terminated by the addition of 1 volume of 4 mM spermine in 10 mM Tris-Cl pH 8.0, 1 mM EDTA. After incubation for at least 15 min at room temperature, the precipitated RNA was captured by filtering through a GF/B filter (Millipore) in a 96 well format. The filter plate was washed three times with 200 μl each of 2 mM spermine, 10 mM Tris-Cl pH 8.0, 1 mM EDTA, and 2 times with ethanol. After air-drying, 30 μl of Microscint 20 scintillation cocktail (Packard) was added to each well, and the retained cpm were determined by scintillation counting. […] Retained cpm were plotted vs. inhibitor concentration and fit to equation 1 using non-linear regression (ref. 1) to obtain the IC50 values: Retained cpm=A[sqrt{(IC50+It−Et)^2+4*IC50*Et}−(IC50+It−Et)]
Ref. Morrison, J. F. and S. R. Stone. […] Approaches to the study and analysis of the inhibition of enzymes by slow- and tight-binding inhibitors. Comments Mol. Cell. Biophys.
The sequence of the template RNA used was: 5′-[…]

[2] = tested on: genotype 1b-Con1 subgenomic replicon cell line; test: microbe, parasite or virus in culture; type: cell-based, HCV; conditions: Hepatitis C virus, read-out: EC50 1b
[3] = biological target: T2, HCV polymerase 1B (Δ21 NS5B, BK) (Hepatitis C virus genotype 1b, UniProt P26663); test: biochemical
T2 construct: 20 to 50 nM Δ21 NS5B
T2 sequence (P26663 2420-2989, stated change not applied): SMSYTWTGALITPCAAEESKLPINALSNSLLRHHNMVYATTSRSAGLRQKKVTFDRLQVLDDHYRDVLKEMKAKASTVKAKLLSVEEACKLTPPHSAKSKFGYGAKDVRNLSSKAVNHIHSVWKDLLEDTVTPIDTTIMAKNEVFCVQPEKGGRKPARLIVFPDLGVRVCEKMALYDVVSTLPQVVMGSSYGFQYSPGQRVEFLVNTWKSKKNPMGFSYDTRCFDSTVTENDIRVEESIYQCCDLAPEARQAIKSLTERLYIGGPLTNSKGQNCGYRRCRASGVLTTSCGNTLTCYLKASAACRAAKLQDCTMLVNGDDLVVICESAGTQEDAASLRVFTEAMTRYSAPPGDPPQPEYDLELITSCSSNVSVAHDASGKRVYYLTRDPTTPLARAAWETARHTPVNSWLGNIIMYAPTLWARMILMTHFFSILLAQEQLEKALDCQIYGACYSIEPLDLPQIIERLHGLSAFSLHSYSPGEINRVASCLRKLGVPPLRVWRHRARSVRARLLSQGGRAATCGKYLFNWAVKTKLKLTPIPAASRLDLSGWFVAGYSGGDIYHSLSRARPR
Method: as §1
Either two-fold serial dilutions (fractional inhibition assay) or a narrower range of dilutions spanning the IC50 of the inhibitor (tight binding assay) of the inhibitors were incubated with 20 mM Tris-Cl pH 7.4, 2 mM MnCl2, 1 mM dithiothreitol, 1 mM ethylene diamine tetraacetic acid (EDTA), 60 to 125 μM GTP and 20 to 50 nM Δ21 NS5B (HCV Strain 1B (BK, Genbank accession number M58335, or H77, Genbank accession number AF011751)) for 15 min at room temperature. The reaction was initiated by the addition of 20 μM CTP, 20 μM ATP, 1 μM ^3H-UTP (10 mCi/umol), 5 nM template RNA and 0.1 U/μl RNase inhibitor (RNasin, Promega), and allowed to proceed for 2 to 4 h at room temperature. Reaction volume was 50 μl. The reaction was terminated by the addition of 1 volume of 4 mM spermine in 10 mM Tris-Cl pH 8.0, 1 mM EDTA. After incubation for at least 15 min at room temperature, the precipitated RNA was captured by filtering through a GF/B filter (Millipore) in a 96 well format. The filter plate was washed three times with 200 μl each of 2 mM spermine, 10 mM Tris-Cl pH 8.0, 1 mM EDTA, and 2 times with ethanol. After air-drying, 30 μl of Microscint 20 scintillation cocktail (Packard) was added to each well, and the retained cpm were determined by scintillation counting. […] Retained cpm were plotted vs. inhibitor concentration and fit to equation 1 using non-linear regression (ref. 1) to obtain the IC50 values: Retained cpm=A[sqrt{(IC50+It−Et)^2+4*IC50*Et}−(IC50+It−Et)]
Ref. Morrison, J. F. and S. R. Stone. 1985. Approaches to the study and analysis of the inhibition of enzymes by slow- and tight-binding inhibitors. Comments Mol. Cell. Biophys. 2: 347-368.
The sequence of the template RNA used was: 5′-[…] […] […] […] […] […] […] […] […] […] […] […] […] […] […] […] […]-3′ (SEQ ID NO: 1)

T1 sequence (P27958 2421-2990, stated change not applied): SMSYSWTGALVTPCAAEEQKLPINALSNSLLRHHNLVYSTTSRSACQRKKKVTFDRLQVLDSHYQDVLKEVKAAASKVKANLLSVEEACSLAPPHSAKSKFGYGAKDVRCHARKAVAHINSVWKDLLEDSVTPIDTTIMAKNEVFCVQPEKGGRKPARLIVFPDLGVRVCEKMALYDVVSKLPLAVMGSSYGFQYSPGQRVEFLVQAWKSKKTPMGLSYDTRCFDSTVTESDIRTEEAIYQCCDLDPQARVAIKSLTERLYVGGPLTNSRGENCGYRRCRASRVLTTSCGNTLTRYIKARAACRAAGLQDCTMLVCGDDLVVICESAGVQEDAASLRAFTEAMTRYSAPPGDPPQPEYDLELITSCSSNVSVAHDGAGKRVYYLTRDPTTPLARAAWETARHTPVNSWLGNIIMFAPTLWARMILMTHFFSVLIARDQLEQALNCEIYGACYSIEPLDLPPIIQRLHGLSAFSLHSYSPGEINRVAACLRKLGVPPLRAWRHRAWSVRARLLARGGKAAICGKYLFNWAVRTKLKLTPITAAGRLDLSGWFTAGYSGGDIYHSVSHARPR

| SMILES | IC50 [1] [nM] | EC50 [2] [nM] | IC50 [3] [nM] |
| --- | --- | --- | --- |
| COc1c(C(=O)Nc2ccc(N)nc2)cc(N2CCC(=O)NC2=O)cc1C(C)(C)C [IA-L3-1.100, N-(6-aminopyridin-3-yl)-3-tert-butyl-5-(2,4-dioxotetrahydropyrimidin-1(2H)-yl)-2-methoxy benzamide] | > 1000 | > 1000 | 100 to 1000 |
| COc1c(C(=O)Nc2ccc(NS(C)(=O)=O)cn2)cc(N2CCC(=O)NC2=O)cc1C(C)(C)C [IA-L3-1.102, 3-tert-butyl-5-(2,4-dioxotetrahydropyrimidin-1(2H)-yl)-2-methoxy-N-(5-(methylsulfonamido)pyridin-2-yl)benzamide] | 100 to 1000 | 100 to 1000 | 100 to 1000 |
| COc1c(C(=O)Nc2ccc(NS(=O)(=O)CCN3CCOCC3)cc2)cc(N2CCC(=O)NC2=O)cc1C(C)(C)C [IA-L3-1.58, 3-tert-butyl-5-(2,4-dioxotetrahydropyrimidin-1(2H)-yl)-2-methoxy-N-(4-(2-morpholinoethylsulfonamido)phenyl)benzamide] | 100 to 1000 | 100 to 1000 | 100 to 1000 |
| COc1c(C(=O)Nc2ccc(N(C)S(C)(=O)=O)cc2)cc(N2CCC(=O)N(C)C2=O)cc1C(C)(C)C [IA-L3-1.25, 3-tert-butyl-N-[4-(methanesulfonyl-methyl-amino)-phenyl]-2-methoxy-5-(3-methyl-2,4-dioxo-tetrahydro-pyrimidin-1-yl)-benzamide] | > 1000 |  | > 1000 |
| CC(C)(C)OC(=O)N1CCN(Cc2cc(N3CCC(=O)NC3=O)cc(C(C)(C)C)c2O)CC1 [IA-L5-1-1.10, 4-[3-tert-butyl-5-(2,4-dioxo-tetrahydro-pyrimidin-1-yl)-2-hydroxy-benzyl]-piperazine-1-carboxylic acid tert-butyl ester] | > 1000 |  | > 1000 |
| CC(C)(C)c1cc(N2CCC(=O)NC2=O)cc(CN2CCCC(C(N)=O)C2)c1O (centres unmarked) [IA-L5-1-1.8, 1-[3-tert-butyl-5-(2,4-dioxo-tetrahydro-pyrimidin-1-yl)-2-hydroxy-benzyl]-piperidine-3-carboxylic acid amide, trifluoroacetic acid salt] | > 1000 |  | > 1000 |
| CCCC(=O)OCN1C(=O)CCN(c2cc(C(=O)Nc3ccc(N(COC(=O)CCC)S(C)(=O)=O)cc3)c(OC)c(C(C)(C)C)c2)C1=O [IA-L3-1.88, (N-(4-(3-tert-butyl-5-(3-(butyryloxymethyl)-2,4-dioxotetrahydropyrimidin-1(2H)-yl)-2-methoxybenzamido)phenyl)methylsulfonamido)methyl butyrate] | > 1000 |  | > 1000 |
| COC(=O)Nc1ccc(NC(=O)c2cc(N3CCC(=O)NC3=O)cc(C(C)(C)C)c2OC)cc1 [IA-L3-1.49, Methyl 4-(3-tert-butyl-5-(2,4-dioxotetrahydropyrimidin-1(2H)-yl)-2-methoxybenzamido) phenylcarbamate] | > 1000 |  | > 1000 |
| CC(C)(C)c1cc(N2CCC(=O)NC2=O)cc(CN2CCC[C@@H](O)C2)c1O [IA-L5-1-1.6, 1-[3-tert-butyl-4-hydroxy-5-((R)-3-hydroxy-piperidin-1-ylmethyl)-phenyl]-dihydro-pyrimidine-2,4-dione; compound with trifluoroacetic acid] | > 1000 |  | > 1000 |
| COc1c(C(=O)Nc2ccc(N(COC(C)=O)S(C)(=O)=O)cc2)cc(N2CCC(=O)NC2=O)cc1C(C)(C)C | 100 to 1000 |  | > 1000 |
| CC(C)(C)c1cc(N2CCC(=O)NC2=O)cc(NC(=O)c2ccccc2)c1O [IA-L4-1.2, N-(3-tert-butyl-5-(2,4-dioxotetrahydropyrimidin-1(2H)-yl)-2-hydroxyphenyl)benzamide] | > 1000 |  | > 1000 |
| COc1c(-c2nc3cc(N(S(C)(=O)=O)S(C)(=O)=O)ccc3[nH]2)cc(N2CCC(=O)NC2=O)cc1C(C)(C)C [IA-L0-2.10, N-(2-(3-tert-butyl-5-(2,4-dioxotetrahydropyrimidin-1(2H)-yl)-2-methoxyphenyl)-1H-benzo[d]imidazol-5-yl)-N-(methylsulfonyl)methanesulfonamide] | > 1000 |  | > 1000 |
| COc1c(NC(=O)c2ccc(CS(C)(=O)=O)cc2)cc(N2CCC(=O)NC2=O)cc1C(C)(C)C [IA-L4-1.10, N-(3-tert-butyl-5-(2,4-dioxotetrahydropyrimidin-1(2H)-yl)-2-methoxyphenyl)-4-(methylsulfonylmethyl)benzamide] | > 1000 |  | > 1000 |
| C=CCN1C(=O)CCN(c2cc(C(=O)Nc3ccc(N(CC=C)S(C)(=O)=O)cc3)c(OC)c(C(C)(C)C)c2)C1=O [IA-L3-1.118, 5-(3-allyl-2,4-dioxotetrahydropyrimidin-1(2H)-yl)-N-(4-(N-allylmethylsulfonamido)phenyl)-3-tert-butyl-2-methoxybenzamide] | > 1000 |  | > 1000 |
| COc1c(Cc2cn(C)c3ccccc23)cc(N2CCC(=O)NC2=O)cc1C(C)(C)C [IA-L5-1-2.1, 1-(3-tert-butyl-4-methoxy-5-((1-methyl-1H-indol-3-yl)methyl)phenyl)dihydropyrimidine-2,4(1H,3H)-dione] | > 1000 |  | > 1000 |
| COc1c(-c2ncc(-c3cccc([N+](=O)[O-])c3)o2)cc(N2CCC(=O)NC2=O)cc1C(C)(C)C [IA-L0-1.10, 1-(3-tert-butyl-4-methoxy-5-(5-(3-nitrophenyl)oxazol-2-yl)phenyl)dihydropyrimidine-2,4(1H,3H)-dione] | > 1000 |  | > 1000 |
| COc1c(C(=O)Nc2ccc(N(CC3CC3)S(C)(=O)=O)cc2)cc(N2CCC(=O)NC2=O)cc1C(C)(C)C [IA-L3-1.66, 3-tert-butyl-N-(4-(N-(cyclopropylmethyl)methylsulfonamido)phenyl)-5-(2,4-dioxotetrahydropyrimidin-1(2H)-yl)-2-methoxybenzamide] | > 1000 |  | > 1000 |
| CC(C)(C)c1cc(N2CCC(=O)NC2=O)cc(CN2CCC(NS(C)(=O)=O)C2)c1O (centres unmarked) [IA-L5-1-1.11, N-{1-[3-tert-butyl-5-(2,4-dioxo-tetrahydro-pyrimidin-1-yl)-2-hydroxy-benzyl]-pyrrolidin-3-yl}-methanesulfonamide] | > 1000 |  | > 1000 |
| COCCOC(=O)N(c1ccc(NC(=O)c2cc(N3CCC(=O)NC3=O)cc(C(C)(C)C)c2OC)cc1)S(C)(=O)=O [IA-L3-1.77, 2-methoxyethyl 4-(3-tert-butyl-5-(2,4-dioxotetrahydropyrimidin-1(2H)-yl)-2-methoxybenzamido)phenyl(methylsulfonyl)carbamate] | > 1000 |  | > 1000 |
| CCN(Cc1cc(N2CCC(=O)NC2=O)cc(C(C)(C)C)c1O)C1CCCCC1 [IA-L9-1.1, 1-(3-tert-butyl-5-((cyclohexyl(ethyl)amino)methyl)-4-hydroxyphenyl)dihydropyrimidine-2,4(1H,3H)-dione 2,2,2-trifluoroacetate] | > 1000 |  | > 1000 |
| COc1c(-c2ncc(-c3ccc([N+](=O)[O-])cc3)o2)cc(N2CCC(=O)NC2=O)cc1C(C)(C)C [IA-L0-1.11, 1-(3-tert-butyl-4-methoxy-5-(5-(4-nitrophenyl)oxazol-2-yl)phenyl)dihydropyrimidine-2,4(1H,3H)-dione] | > 1000 |  | > 1000 |
| CC1CCCN(Cc2cc(N3CCC(=O)NC3=O)cc(C(C)(C)C)c2O)C1 (centres unmarked) [IA-L5-1-1.4, 1-[3-tert-butyl-4-hydroxy-5-(3-methyl-piperidin-1-ylmethyl)-phenyl]-dihydro-pyrimidine-2,4-dione; compound with trifluoroacetic acid] | > 1000 |  | > 1000 |

From patent US8415351B2 (priority 2007, dated 2013)
